Test results taken from ChEMBL document CHEMBL4477239 (Bioorg Med Chem, 2016).

Tests used:
[1] = Intrinsic clearance in rat liver microsomes assessed per mg of protein at 1 uM preincubated for 5 mins followed by NADPH addition measured after 5 to 30 mins by LC-MS/MS analysis; format: ADME, Microsome; conditions: read-out: CLH
NCI-H1993 = experiment: Cytotoxicity against human NCI-H1993 cells assessed as growth inhibition after 72 hrs by CCK-8 assay; conditions: NCI-H1993, 72 h
[2] = Intrinsic clearance in human liver microsomes assessed per mg of protein at 1 uM preincubated for 5 mins followed by NADPH addition measured after 5 to 30 mins by LC-MS/MS analysis; format: ADME, Microsome; conditions: read-out: CLH
Cytochrome P450 2C9 = Cytochrome P450 2C9 (Homo sapiens, UniProt P11712); experiment: Inhibition of CYP2C9 in human liver microsomes at 10 uM using sulfaphenazole as […] preincubated for 5 mins followed by NADPH addition measured after 20 mins by LC-MS/MS analysis; format: ADME
Sequence of Cytochrome P450 2C9 (P11712 whole entry): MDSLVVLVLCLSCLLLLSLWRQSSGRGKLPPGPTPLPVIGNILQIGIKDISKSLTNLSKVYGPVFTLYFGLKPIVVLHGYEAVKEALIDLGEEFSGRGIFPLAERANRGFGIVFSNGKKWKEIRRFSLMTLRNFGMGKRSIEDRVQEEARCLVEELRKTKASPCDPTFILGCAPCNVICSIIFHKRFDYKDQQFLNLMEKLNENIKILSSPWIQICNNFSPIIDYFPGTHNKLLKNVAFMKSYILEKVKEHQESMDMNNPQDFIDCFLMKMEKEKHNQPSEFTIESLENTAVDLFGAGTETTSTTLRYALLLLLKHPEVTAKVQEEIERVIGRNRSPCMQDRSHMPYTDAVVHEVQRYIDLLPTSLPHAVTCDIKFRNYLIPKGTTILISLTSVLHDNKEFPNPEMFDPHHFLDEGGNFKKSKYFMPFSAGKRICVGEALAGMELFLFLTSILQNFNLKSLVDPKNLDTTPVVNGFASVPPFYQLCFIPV

Cytochrome P450 3A4 = Cytochrome P450 3A4 (Homo sapiens, UniProt P08684); experiment: Time-dependent inhibition of CYP3A4 in human liver microsomes at 10 uM using troleandomycin as […] preincubated with compound followed by NADPH addition by LC-MS/MS analysis; format: ADME
Cytochrome P450 2D6 = Cytochrome P450 2D6 (Homo sapiens, UniProt P10635); experiment: Time-dependent inhibition of CYP2D6 in human liver microsomes at 10 uM using paroxetine as […] preincubated with compound followed by NADPH addition by LC-MS/MS analysis; format: ADME
Cytochrome P450 1A2 = target: T1, Cytochrome P450 1A2 (Homo sapiens, UniProt P05177); experiment: Time-dependent inhibition of CYP1A2 in human liver microsomes at 10 uM using furafylline as […] preincubated with compound followed by NADPH addition by LC-MS/MS analysis; format: ADME
T1 sequence (P05177 whole entry): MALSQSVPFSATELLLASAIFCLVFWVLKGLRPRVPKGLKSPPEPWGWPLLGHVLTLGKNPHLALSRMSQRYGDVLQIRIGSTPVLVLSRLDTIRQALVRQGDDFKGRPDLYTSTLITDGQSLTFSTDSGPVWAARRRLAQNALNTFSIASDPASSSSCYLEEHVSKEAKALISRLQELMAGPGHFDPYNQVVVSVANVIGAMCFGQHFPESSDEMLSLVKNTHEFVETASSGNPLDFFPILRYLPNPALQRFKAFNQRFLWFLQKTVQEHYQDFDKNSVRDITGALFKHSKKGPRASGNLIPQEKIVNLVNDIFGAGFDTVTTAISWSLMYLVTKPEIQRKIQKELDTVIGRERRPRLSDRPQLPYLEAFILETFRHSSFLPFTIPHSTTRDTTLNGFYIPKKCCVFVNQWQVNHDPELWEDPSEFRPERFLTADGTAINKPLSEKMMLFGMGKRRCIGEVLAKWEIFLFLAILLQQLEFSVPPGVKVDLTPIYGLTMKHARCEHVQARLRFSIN

[3] = Apparent permeability from basolateral to apical side in Caco2 cells at 1 to 10 uM incubated for 90 mins by LC-MS/MS analysis; format: ADME, cell-based; conditions: human, Caco-2
[4] = Efflux ratio of permeability from basolateral to apical side over apical to basolateral side in Caco2 cells at 1 to 10 uM incubated for 90 mins by LC-MS/MS analysis; format: ADME, cell-based; conditions: human, Caco-2
[5] = target: Tyrosine-protein kinase receptor UFO (Homo sapiens, UniProt P30530); experiment: Inhibition of human AXL
[6] = target: Macrophage-stimulating protein receptor (Homo sapiens, UniProt Q04912); experiment: Inhibition of human RON
[7] = target: ALK tyrosine kinase receptor (Homo sapiens, UniProt Q9UM73); experiment: Inhibition of human ALK
[8] = target: Vascular endothelial growth factor receptor 1 (Homo sapiens, UniProt P17948); experiment: Inhibition of human FLT1
[9] = target: Vascular endothelial growth factor receptor 2 (Homo sapiens, UniProt P35968); experiment: Inhibition of human VEGFR2
Sequence of Vascular endothelial growth factor receptor 2 (P35968 whole entry): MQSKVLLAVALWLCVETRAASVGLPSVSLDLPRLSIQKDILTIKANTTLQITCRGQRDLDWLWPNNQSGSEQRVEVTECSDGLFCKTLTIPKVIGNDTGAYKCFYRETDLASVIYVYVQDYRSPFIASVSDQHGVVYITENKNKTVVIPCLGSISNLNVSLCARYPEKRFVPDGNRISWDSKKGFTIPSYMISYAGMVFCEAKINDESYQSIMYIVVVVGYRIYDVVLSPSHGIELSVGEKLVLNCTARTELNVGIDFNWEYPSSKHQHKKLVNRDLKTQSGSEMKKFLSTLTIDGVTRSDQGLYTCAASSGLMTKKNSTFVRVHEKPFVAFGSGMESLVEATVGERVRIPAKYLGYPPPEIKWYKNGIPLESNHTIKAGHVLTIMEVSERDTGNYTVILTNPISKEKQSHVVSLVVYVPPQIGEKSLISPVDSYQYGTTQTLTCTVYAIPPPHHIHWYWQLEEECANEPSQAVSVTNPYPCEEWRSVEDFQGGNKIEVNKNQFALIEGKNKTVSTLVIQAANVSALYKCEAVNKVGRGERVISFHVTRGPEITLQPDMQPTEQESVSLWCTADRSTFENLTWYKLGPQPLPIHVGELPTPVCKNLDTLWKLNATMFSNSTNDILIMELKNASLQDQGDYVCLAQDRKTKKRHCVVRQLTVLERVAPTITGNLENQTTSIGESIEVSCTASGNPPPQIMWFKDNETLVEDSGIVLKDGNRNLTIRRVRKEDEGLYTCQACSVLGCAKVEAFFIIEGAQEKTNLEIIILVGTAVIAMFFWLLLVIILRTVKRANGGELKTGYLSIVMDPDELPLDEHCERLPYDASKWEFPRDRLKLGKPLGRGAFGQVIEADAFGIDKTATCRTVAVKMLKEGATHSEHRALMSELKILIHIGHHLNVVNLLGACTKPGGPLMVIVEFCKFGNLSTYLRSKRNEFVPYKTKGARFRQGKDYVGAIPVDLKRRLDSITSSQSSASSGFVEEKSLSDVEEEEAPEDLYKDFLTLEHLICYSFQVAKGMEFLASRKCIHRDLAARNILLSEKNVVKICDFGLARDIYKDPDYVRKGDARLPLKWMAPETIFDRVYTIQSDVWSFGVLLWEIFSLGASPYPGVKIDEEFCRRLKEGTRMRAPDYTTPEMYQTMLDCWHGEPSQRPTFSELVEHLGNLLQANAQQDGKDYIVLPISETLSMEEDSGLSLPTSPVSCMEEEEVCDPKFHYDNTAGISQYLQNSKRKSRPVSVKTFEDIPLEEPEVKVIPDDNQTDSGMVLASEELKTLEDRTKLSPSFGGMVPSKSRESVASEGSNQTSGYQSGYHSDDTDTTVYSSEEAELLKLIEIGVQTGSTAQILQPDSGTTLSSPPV

[10] = target: Mast/stem cell growth factor receptor Kit (Homo sapiens, UniProt P10721); experiment: Inhibition of human c-Kit
Sequence of Mast/stem cell growth factor receptor Kit (P10721 whole entry): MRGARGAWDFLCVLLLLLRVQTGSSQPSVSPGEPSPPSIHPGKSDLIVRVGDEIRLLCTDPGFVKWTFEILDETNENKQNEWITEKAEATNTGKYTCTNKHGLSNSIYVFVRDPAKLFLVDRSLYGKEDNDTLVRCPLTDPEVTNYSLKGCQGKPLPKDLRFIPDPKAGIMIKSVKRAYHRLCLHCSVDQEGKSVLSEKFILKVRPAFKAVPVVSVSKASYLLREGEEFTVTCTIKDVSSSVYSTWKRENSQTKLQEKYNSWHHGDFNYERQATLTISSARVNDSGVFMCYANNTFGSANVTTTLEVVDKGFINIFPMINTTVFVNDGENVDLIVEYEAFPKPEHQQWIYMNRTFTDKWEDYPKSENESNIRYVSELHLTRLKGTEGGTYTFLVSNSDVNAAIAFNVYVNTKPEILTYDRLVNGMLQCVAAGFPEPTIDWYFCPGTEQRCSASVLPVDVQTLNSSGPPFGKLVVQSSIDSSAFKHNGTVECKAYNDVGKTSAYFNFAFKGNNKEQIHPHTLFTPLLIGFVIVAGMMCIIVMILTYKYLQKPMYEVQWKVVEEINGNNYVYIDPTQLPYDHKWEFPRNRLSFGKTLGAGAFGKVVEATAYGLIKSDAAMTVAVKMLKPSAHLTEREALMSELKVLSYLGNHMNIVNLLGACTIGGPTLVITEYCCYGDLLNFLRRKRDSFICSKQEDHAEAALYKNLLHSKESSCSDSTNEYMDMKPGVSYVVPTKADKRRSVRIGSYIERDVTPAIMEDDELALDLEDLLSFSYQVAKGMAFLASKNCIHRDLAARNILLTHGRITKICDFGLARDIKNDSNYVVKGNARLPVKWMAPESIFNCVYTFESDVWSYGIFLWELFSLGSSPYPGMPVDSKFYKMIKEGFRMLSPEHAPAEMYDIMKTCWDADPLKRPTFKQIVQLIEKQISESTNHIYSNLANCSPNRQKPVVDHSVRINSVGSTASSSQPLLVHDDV

[11] = target: Platelet-derived growth factor receptor alpha (Homo sapiens, UniProt P16234); experiment: Inhibition of human PDGFRalpha
[12] = target: Platelet-derived growth factor receptor beta (Homo sapiens, UniProt P09619); experiment: Inhibition of human PDGFRbeta
Sequence of Platelet-derived growth factor receptor beta (P09619 whole entry): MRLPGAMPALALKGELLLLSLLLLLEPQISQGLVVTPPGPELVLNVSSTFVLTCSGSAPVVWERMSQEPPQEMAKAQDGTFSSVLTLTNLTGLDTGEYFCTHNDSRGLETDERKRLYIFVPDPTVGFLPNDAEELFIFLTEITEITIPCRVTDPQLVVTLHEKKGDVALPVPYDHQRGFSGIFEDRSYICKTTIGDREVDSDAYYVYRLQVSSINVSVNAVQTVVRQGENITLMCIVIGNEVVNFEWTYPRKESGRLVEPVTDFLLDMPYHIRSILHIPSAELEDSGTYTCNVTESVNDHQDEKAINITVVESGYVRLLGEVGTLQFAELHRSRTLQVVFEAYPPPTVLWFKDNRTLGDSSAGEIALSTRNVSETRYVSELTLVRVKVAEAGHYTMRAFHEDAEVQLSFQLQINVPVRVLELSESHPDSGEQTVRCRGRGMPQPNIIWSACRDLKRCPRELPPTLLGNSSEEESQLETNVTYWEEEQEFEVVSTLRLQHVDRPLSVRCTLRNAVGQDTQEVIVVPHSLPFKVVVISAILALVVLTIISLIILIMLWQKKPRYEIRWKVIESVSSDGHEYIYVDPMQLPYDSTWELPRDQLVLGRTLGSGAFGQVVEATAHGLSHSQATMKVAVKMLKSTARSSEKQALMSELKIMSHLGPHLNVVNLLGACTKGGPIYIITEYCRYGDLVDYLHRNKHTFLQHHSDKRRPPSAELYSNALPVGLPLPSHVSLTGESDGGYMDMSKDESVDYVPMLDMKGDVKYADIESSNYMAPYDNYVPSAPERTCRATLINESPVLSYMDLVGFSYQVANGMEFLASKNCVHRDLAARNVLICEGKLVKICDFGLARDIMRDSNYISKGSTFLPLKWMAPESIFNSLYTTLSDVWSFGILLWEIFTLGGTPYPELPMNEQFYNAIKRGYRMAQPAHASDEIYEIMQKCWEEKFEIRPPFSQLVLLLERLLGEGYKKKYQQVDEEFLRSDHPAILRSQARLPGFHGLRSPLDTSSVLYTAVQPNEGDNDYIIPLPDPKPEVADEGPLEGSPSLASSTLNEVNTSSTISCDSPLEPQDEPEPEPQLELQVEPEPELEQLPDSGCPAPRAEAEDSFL

[13] = target: Proto-oncogene tyrosine-protein kinase receptor Ret (Homo sapiens, UniProt P07949); experiment: Inhibition of human RET
[14] = target: Epidermal growth factor receptor (Homo sapiens, UniProt P00533); experiment: Inhibition of human EGFR
[15] = target: Epidermal growth factor receptor (Homo sapiens, UniProt P00533, T790M); experiment: Inhibition of human EGFR T790M mutant
[16] = target: Receptor tyrosine-protein kinase erbB-4 (Homo sapiens, UniProt Q15303); experiment: Inhibition of human ERBB4
[17] = target: Proto-oncogene tyrosine-protein kinase Src (Homo sapiens, UniProt P12931); experiment: Inhibition of human c- SRC
[18] = target: Tyrosine-protein kinase ABL1 (Homo sapiens, UniProt P00519); experiment: Inhibition of human ABL
Ephrin type-A receptor 2 = Ephrin type-A receptor 2 (Homo sapiens, UniProt P29317); experiment: Inhibition of human EPHA2
Ephrin type-B receptor 2 = Ephrin type-B receptor 2 (Homo sapiens, UniProt P29323); experiment: Inhibition of human EPHB2
Sequence of Ephrin type-B receptor 2 (P29323 whole entry): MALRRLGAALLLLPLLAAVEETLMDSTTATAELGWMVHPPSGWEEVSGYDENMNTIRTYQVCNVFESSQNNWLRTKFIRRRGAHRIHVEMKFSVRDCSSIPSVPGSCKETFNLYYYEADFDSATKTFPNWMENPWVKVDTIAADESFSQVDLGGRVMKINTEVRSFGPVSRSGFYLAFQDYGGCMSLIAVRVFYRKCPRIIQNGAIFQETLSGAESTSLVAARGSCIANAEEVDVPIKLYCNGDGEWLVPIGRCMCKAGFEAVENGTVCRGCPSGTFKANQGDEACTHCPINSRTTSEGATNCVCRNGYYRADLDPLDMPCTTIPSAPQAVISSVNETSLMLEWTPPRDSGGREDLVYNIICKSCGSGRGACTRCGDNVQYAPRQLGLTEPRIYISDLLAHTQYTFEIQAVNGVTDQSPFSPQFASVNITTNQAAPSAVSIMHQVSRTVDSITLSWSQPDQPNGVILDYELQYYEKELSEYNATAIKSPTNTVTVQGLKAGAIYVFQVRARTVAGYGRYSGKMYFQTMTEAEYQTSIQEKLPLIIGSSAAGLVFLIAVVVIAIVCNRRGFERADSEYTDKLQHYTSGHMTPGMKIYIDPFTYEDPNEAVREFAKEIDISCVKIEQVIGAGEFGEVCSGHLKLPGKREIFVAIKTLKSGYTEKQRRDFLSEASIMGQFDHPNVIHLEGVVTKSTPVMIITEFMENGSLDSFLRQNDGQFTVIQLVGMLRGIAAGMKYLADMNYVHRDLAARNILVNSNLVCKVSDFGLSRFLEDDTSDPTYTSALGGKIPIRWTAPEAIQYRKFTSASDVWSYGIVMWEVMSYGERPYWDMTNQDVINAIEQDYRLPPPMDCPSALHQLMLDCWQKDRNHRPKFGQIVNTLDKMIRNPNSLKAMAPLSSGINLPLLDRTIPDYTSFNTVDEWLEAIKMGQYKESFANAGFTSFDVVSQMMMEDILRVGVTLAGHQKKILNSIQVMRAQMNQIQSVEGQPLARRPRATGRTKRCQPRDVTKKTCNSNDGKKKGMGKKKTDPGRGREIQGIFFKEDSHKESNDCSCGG

[19] = target: Insulin-like growth factor 1 receptor (Homo sapiens, UniProt P08069); experiment: Inhibition of human IGF1R
[20] = target: Fibroblast growth factor receptor 1 (Homo sapiens, UniProt P11362); experiment: Inhibition of human FGFR1
[21] = target: Hepatocyte growth factor receptor (Homo sapiens, UniProt P08581)
Description: Inhibition of c-Met kinase (unknown origin) assessed as decrease in phosphorylation of TK substrate-biotin peptide preincubated for 5 to 10 mins followed by ATP addition measured after 30 mins by HTRF assay

in vitro = conditions: human, Caco-2
Description: Apparent permeability from apical to basolateral side in Caco2 cells at 1 to 10 uM incubated for 90 mins by LC-MS/MS analysis

Structure (SMILES): C[C@@H](c1cc2cccnc2cc1F)n1cnc2ncc(-c3cnn(C)c3)nc21
- microsomal CLint at 1 µM [1]: 49 µL/min/mg
- IC50 (NCI-H1993): 0.0247 µM
- microsomal CLint at 1 µM [2]: 8 µL/min/mg
- inhibition (INH) (Cytochrome P450 2C9): Active
- inhibition (INH) (Cytochrome P450 3A4): Not Active
- inhibition (INH) (Cytochrome P450 2D6): Not Active
- inhibition (INH) (Cytochrome P450 1A2): Not Active
- Papp B→A at 1.5 h [3]: 48.6 ×10⁻⁶ cm/s
- efflux ratio at 1.5 h [4]: 1.04
- IC50 [5]: > 30 µM
- IC50 [6]: > 30 µM
- IC50 [7]: > 30 µM
- IC50 [8]: > 30 µM
- IC50 [9]: 20.6 µM
- IC50 [10]: > 30 µM
- IC50 [11]: 27.6 µM
- IC50 [12]: 26.2 µM
- IC50 [13]: > 30 µM
- IC50 [14]: > 30 µM
- IC50 [15]: > 30 µM
- IC50 [16]: > 30 µM
- IC50 [17]: > 30 µM
- IC50 [18]: > 30 µM
- IC50 (Ephrin type-A receptor 2): > 30 µM
- IC50 (Ephrin type-B receptor 2): > 30 µM
- IC50 [19]: > 30 µM
- IC50 [20]: > 30 µM
- IC50 [21]: 0.00145 µM
- Papp A→B at 1.5 h, 10 µM (in vitro): 46.6 ×10⁻⁶ cm/s
